Blank lines part the entries; values can stand above or below the compound they belong to.
Columns and labels:
Test in all cases: Competitive isoTOP-ABPP in situ (fragment-treated cells)
Assay type in all cases: cell-based
[1] = molecular target: T1, cysteines in MDA-MB-231 and Ramos cells (Homo sapiens, UniProt Q9Y277)
T1 sequence (Q9Y277 1-283): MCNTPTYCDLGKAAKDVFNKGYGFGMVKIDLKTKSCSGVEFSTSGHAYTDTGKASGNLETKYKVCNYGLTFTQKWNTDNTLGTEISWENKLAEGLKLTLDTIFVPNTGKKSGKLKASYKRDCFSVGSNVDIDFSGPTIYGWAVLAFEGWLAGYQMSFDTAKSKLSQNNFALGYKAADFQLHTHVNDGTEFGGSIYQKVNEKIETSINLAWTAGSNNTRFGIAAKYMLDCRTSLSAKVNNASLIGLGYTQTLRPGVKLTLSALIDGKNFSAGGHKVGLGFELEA

[2] = molecular target: T2, cysteines in MDA-MB-231 and Ramos cells (Homo sapiens, UniProt P31943)
T2 sequence (P31943 1-449): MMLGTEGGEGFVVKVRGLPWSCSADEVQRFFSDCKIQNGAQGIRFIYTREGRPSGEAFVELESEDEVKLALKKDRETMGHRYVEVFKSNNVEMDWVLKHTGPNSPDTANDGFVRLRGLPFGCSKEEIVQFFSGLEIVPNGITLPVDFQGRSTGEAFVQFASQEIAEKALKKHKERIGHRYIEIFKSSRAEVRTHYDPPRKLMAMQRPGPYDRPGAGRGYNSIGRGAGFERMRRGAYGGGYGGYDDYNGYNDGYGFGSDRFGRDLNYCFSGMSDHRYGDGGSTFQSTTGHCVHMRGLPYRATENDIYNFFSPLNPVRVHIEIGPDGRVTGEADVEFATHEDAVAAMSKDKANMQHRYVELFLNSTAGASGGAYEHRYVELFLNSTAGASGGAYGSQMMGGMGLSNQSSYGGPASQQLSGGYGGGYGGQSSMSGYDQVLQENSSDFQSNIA

[3] = molecular target: T3, cysteines in MDA-MB-231 and Ramos cells (Homo sapiens, UniProt P24752)
T3 sequence (P24752 34-427): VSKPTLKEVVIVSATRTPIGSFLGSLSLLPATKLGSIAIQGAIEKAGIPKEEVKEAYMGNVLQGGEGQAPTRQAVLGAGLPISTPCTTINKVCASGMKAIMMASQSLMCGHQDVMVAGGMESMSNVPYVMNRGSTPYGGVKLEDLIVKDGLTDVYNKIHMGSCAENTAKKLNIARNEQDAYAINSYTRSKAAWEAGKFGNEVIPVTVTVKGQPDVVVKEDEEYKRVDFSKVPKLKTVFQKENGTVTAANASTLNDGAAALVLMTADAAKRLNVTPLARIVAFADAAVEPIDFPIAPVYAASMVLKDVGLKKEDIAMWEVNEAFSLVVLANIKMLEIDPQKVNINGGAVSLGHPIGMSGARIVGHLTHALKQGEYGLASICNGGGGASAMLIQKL

[4] = molecular target: T4, cysteines in MDA-MB-231 and Ramos cells (Homo sapiens, UniProt Q9NYL9)
T4 sequence (Q9NYL9 1-352): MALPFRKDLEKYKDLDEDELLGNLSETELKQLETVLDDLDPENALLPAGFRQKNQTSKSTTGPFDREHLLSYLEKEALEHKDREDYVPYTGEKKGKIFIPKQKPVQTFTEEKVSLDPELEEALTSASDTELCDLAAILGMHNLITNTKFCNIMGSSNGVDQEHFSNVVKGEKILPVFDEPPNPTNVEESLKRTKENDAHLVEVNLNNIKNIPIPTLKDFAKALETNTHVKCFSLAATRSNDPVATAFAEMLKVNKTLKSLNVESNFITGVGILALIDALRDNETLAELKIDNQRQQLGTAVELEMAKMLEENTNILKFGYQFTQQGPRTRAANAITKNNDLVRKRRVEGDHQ

[5] = molecular target: T5, cysteines in MDA-MB-231 and Ramos cells (Homo sapiens, UniProt Q9BQ69)
T5 sequence (Q9BQ69 1-325): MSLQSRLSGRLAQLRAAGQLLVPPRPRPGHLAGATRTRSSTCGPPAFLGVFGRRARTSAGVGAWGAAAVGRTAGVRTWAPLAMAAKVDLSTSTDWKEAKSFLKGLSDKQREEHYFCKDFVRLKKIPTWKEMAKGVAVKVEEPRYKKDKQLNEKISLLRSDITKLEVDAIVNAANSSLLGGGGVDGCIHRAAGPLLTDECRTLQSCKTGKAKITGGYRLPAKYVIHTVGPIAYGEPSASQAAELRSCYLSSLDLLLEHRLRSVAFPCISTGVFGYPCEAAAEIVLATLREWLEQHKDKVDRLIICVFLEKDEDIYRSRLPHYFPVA

[6] = molecular target: T6, cysteines in MDA-MB-231 and Ramos cells (Homo sapiens, UniProt Q9HAV7)
T6 sequence (Q9HAV7 28-217): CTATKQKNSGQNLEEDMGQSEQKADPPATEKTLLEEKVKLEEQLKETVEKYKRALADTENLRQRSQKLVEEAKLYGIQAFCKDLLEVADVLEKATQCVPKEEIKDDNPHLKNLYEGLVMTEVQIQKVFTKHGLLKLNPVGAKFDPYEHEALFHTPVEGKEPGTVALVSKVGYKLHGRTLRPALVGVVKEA

[7] = molecular target: T7, cysteines in MDA-MB-231 and Ramos cells (Homo sapiens, UniProt P78417)
T7 sequence (P78417 1-241): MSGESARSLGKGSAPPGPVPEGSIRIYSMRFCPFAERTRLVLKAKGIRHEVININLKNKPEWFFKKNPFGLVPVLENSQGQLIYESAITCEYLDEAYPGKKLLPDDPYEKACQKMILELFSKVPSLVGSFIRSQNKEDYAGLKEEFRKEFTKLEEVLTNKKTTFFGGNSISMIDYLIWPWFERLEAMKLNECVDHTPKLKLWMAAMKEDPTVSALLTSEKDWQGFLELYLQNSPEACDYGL

isoTOP-ABPP reactivity Q9Y277_C65 VDAC3 ([1]; 200 μM, insitu, 231): 3.3
isoTOP-ABPP reactivity P31943_C267 HNRNPH1 ([2]; 200 μM, insitu, 231): 3.8
isoTOP-ABPP reactivity P24752_C119 ACAT1 ([3]; 200 μM, insitu, 231): 2.6
isoTOP-ABPP reactivity P24752_C126 ACAT1 ([3]; 200 μM, insitu, 231): 9.1
isoTOP-ABPP reactivity P24752_C196 ACAT1 ([3]; 200 μM, insitu, 231): 20.0
isoTOP-ABPP reactivity P24752_C413 ACAT1 ([3]; 200 μM, insitu, 231): 20.0
isoTOP-ABPP reactivity Q9NYL9_C132 TMOD3 ([4]; 200 μM, insitu, 231): 2.2
isoTOP-ABPP reactivity Q9BQ69_C186 MACROD1 ([5]; 200 μM, insitu, 231): 4.8
isoTOP-ABPP reactivity Q9HAV7_C124 GRPEL1 ([6]; 200 μM, insitu, 231): 3.2
Compound: COc1ccc2c(c1)CCCN2C(=O)CCl [compound 2]

isoTOP-ABPP reactivity P78417_C32 GSTO1 ([7]; 100 μM in situ 231): 19.9
isoTOP-ABPP reactivity Q9Y277_C65 VDAC3 ([1]; 100 μM in situ 231): 4.7
isoTOP-ABPP reactivity P31943_C267 HNRNPH1 ([2]; 100 μM in situ 231): 6.0
isoTOP-ABPP reactivity P24752_C119 ACAT1 ([3]; 100 μM in situ 231): 3.0
isoTOP-ABPP reactivity P24752_C126 ACAT1 ([3]; 100 μM in situ 231): 2.8
isoTOP-ABPP reactivity P24752_C196 ACAT1 ([3]; 100 μM in situ 231): 3.5
isoTOP-ABPP reactivity P24752_C413 ACAT1 ([3]; 100 μM in situ 231): 4.5
isoTOP-ABPP reactivity Q9NYL9_C132 TMOD3 ([4]; 100 μM in situ 231): 0.8
isoTOP-ABPP reactivity Q9BQ69_C186 MACROD1 ([5]; 100 μM in situ 231): 1.8
isoTOP-ABPP reactivity Q9HAV7_C124 GRPEL1 ([6]; 100 μM in situ 231): 1.7
Compound: COc1ccc(C2CC(c3cccs3)=NN2C(=O)CCl)cc1 (stereo not drawn) [compound 4]

isoTOP-ABPP reactivity P78417_C32 GSTO1 ([7]; 200 μM, insitu, 231): 20.0
isoTOP-ABPP reactivity P31943_C267 HNRNPH1 ([2]; 200 μM, insitu, 231): 5.3
isoTOP-ABPP reactivity P24752_C119 ACAT1 ([3]; 200 μM, insitu, 231): 5.5
isoTOP-ABPP reactivity P24752_C126 ACAT1 ([3]; 200 μM, insitu, 231): 4.5
isoTOP-ABPP reactivity P24752_C413 ACAT1 ([3]; 200 μM, insitu, 231): 20.0
isoTOP-ABPP reactivity Q9NYL9_C132 TMOD3 ([4]; 200 μM, insitu, 231): 0.9
isoTOP-ABPP reactivity Q9BQ69_C186 MACROD1 ([5]; 200 μM, insitu, 231): 5.0
isoTOP-ABPP reactivity Q9HAV7_C124 GRPEL1 ([6]; 200 μM, insitu, 231): 2.2
Compound: COc1cc2c(cc1OC)CN(C(=O)CCl)CC2 [compound 8]

isoTOP-ABPP reactivity P31943_C267 HNRNPH1 ([2]; 200 μM, insitu, 231): 2.1
isoTOP-ABPP reactivity P24752_C119 ACAT1 ([3]; 200 μM, insitu, 231): 3.8
isoTOP-ABPP reactivity P24752_C126 ACAT1 ([3]; 200 μM, insitu, 231): 14.1
isoTOP-ABPP reactivity P24752_C196 ACAT1 ([3]; 200 μM, insitu, 231): 5.8
isoTOP-ABPP reactivity P24752_C413 ACAT1 ([3]; 200 μM, insitu, 231): 19.5
isoTOP-ABPP reactivity Q9NYL9_C132 TMOD3 ([4]; 200 μM, insitu, 231): 7.6
isoTOP-ABPP reactivity Q9BQ69_C186 MACROD1 ([5]; 200 μM, insitu, 231): 1.2
isoTOP-ABPP reactivity Q9HAV7_C124 GRPEL1 ([6]; 200 μM, insitu, 231): 4.7
Compound: O=C(CCl)N1CCC(Cc2ccccc2)CC1 [compound 9]

isoTOP-ABPP ratio P78417_C32 ([7]; 200 μM, insitu, 231): 20.0
isoTOP-ABPP ratio P78417_C32 ([7]; 200 μM, insitu, ramos): 20.0
isoTOP-ABPP ratio Q9Y277_C65 ([1]; 200 μM, insitu, 231): 3.3
isoTOP-ABPP ratio Q9Y277_C65 ([1]; 200 μM, insitu, ramos): 2.5
isoTOP-ABPP ratio P31943_C267 ([2]; 200 μM, insitu, 231): 4.8
isoTOP-ABPP ratio P31943_C267 ([2]; 200 μM, insitu, ramos): 2.5
isoTOP-ABPP ratio P24752_C119 ([3]; 200 μM, insitu, 231): 4.5
isoTOP-ABPP ratio P24752_C413 ([3]; 200 μM, insitu, 231): 7.8
isoTOP-ABPP ratio, P24752_C126 ([3]; 200 μM, insitu, 231): 5.9
isoTOP-ABPP ratio, P24752_C196 ([3]; 200 μM, insitu, 231): 5.1
isoTOP-ABPP ratio P24752_C119 ([3]; 200 μM, insitu, ramos): 1.5
isoTOP-ABPP ratio P24752_C413 ([3]; 200 μM, insitu, ramos): 2.2
isoTOP-ABPP ratio, P24752_C196 ([3]; 200 μM, insitu, ramos): 2.3
isoTOP-ABPP ratio Q9BQ69_C186 ([5]; 200 μM, insitu, 231): 2.4
isoTOP-ABPP ratio Q9HAV7_C124 ([6]; 200 μM, insitu, 231): 1.0
Compound: O=C(CCl)N1CCN(S(=O)(=O)c2ccccc2F)CC1 [compound 10]

isoTOP-ABPP ratio Q9Y277_C65 ([1]; 100 μM in situ 231): 1.4
isoTOP-ABPP ratio P31943_C267 ([2]; 100 μM in situ 231): 0.9
isoTOP-ABPP ratio P24752_C119 ([3]; 100 μM in situ 231): 1.2
isoTOP-ABPP ratio P24752_C413 ([3]; 100 μM in situ 231): 1.2
isoTOP-ABPP ratio, P24752_C126 ([3]; 100 μM in situ 231): 1.2
isoTOP-ABPP ratio, P24752_C196 ([3]; 100 μM in situ 231): 1.1
isoTOP-ABPP ratio Q9NYL9_C132 ([4]; 100 μM in situ 231): 0.5
isoTOP-ABPP ratio Q9BQ69_C186 ([5]; 100 μM in situ 231): 1.0
isoTOP-ABPP ratio Q9HAV7_C124 ([6]; 100 μM in situ 231): 0.9
Compound: Cn1cc(S(=O)(=O)N2CCOCC2)cc1C(=O)NC(=O)CCl [compound 11]

isoTOP-ABPP ratio P78417_C32 ([7]; 200 μM, insitu, 231): 20.0
isoTOP-ABPP ratio Q9Y277_C65 ([1]; 200 μM, insitu, 231): 3.9
isoTOP-ABPP ratio P31943_C267 ([2]; 200 μM, insitu, 231): 5.0
isoTOP-ABPP ratio P24752_C119 ([3]; 200 μM, insitu, 231): 4.1
isoTOP-ABPP ratio P24752_C413 ([3]; 200 μM, insitu, 231): 9.9
isoTOP-ABPP ratio, P24752_C126 ([3]; 200 μM, insitu, 231): 5.8
isoTOP-ABPP ratio, P24752_C196 ([3]; 200 μM, insitu, 231): 4.6
isoTOP-ABPP ratio Q9NYL9_C132 ([4]; 200 μM, insitu, 231): 0.6
isoTOP-ABPP ratio Q9BQ69_C186 ([5]; 200 μM, insitu, 231): 2.7
isoTOP-ABPP ratio Q9HAV7_C124 ([6]; 200 μM, insitu, 231): 1.1
Compound: O=C(CCl)NC(=O)NC12CC3CC(CC(C3)C1)C2 [compound 12]
